Marks after values point to notes of the source that are not given here.
Test system: patients with relapsed/refractory immune thrombocytopenia
Experiment: Phase 1/2 study (NCT03395210) Part A, safety;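 also: adverse events graded by NCI CTCAE version 4.0, with worsening of pre-existing conditions counted as adverse events, analysed in the Safety Population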
[1] = 45 patients who initiated 400 bid

In the case of `CC(C)(C=C(C#N)C(=O)N1CCC[C@@H](n2nc(-c3ccc(Oc4ccccc4)cc3F)c3c(N)ncnc32)C1)N1CCN(C2COC2)CC1` [rilzabrutinib, (R)-2-[3-[4-amino-3-(2-fluoro-4-phenoxy-phenyl)pyrazolo[3,4-d]pyrimidin-1-yl]piperidine-1-carbonyl]-4-methyl-4-[4-(oxetan-3-yl)piperazin-1-yl]pent-2-enenitrile], the “patients with ≥1 treatment-related, treatment-emergent adverse event” value (45 patients who initiated 400 mg bid) is reported as 84%, the “treatment-related any-grade TEAE: diarrhea” value [1] is reported as 36% and the “treatment-related any-grade TEAE: fatigue” value [1] is reported as 9%. The “treatment-related any-grade TEAE: nausea” value [1] was 31%, the “patients with ≥1 treatment-related, treatment-emergent adverse event” value (60 patients who initiated rilzabrutinib at all doses) was 52% and the “All related TEAEs, Treatment-Related TEAEs, Grade 1” value (N = 45 initiated 400 mg bid) was 23 (51) number of patients (percent). For the same compound, the “All related TEAEs, Treatment-Related TEAEs, Grade 2” value (N = 45 initiated 400 mg bid) was 15 (33) number of patients (percent), the “Diarrhea, Treatment-Related TEAEs, Grade 1” value (N = 45 initiated 400 mg bid) was 13 (29) number of patients (percent) and the “Diarrhea, Treatment-Related TEAEs, Grade 2” value (N = 45 initiated 400 mg bid) was 3 (7) number of patients (percent). The “Fatigue, Treatment-Related TEAEs, Grade 1” value (N = 45 initiated 400 mg bid) was 3 (7) number of patients (percent), the “Fatigue, Treatment-Related TEAEs, Grade 2” value (N = 45 initiated 400 mg bid) was 1 (2) number of patients (percent) and the “Nausea, Treatment-Related TEAEs, Grade 1” value (N = 45 initiated 400 mg bid) was 12 (27) number of patients (percent). For the same compound, the “Nausea, Treatment-Related TEAEs, Grade 2” value (N = 45 initiated 400 mg bid) was 2 (4) number of patients (percent), the “Vomiting, Treatment-Related TEAEs, Grade 1” value (N = 45 initiated 400 mg bid) was 2 (4) number of patients (percent) and the “Vomiting, Treatment-Related TEAEs, Grade 2” value (N = 45 initiated 400 mg bid) was 1 (2) number of patients (percent). For the same compound, the “Abdominal discomfort, TEAEs Due to Any Cause, Any grade” value (Safety Population, N = 60) was 1 (2) number of patients (percent), the “Abdominal discomfort, TEAEs Due to Any Cause, Grade 1” value (Safety Population, N = 60) was 1 (2) number of patients (percent) and the “Abdominal discomfort, Treatment-Related TEAEs, Any grade” value (Safety Population, N = 60) was 1 (2) number of patients (percent). For the same compound, the “Abdominal discomfort, Treatment-Related TEAEs, Grade 1” value (Safety Population, N = 60) was 1 (2) number of patients (percent), the “Abdominal distension, TEAEs Due to Any Cause, Any grade” value (Safety Population, N = 60) was 6 (10) number of patients (percent) and the “Abdominal distension, TEAEs Due to Any Cause, Grade 1” value (Safety Population, N = 60) was 6 (10) number of patients (percent). For the same compound, the “Abdominal distension, Treatment-Related TEAEs, Any grade” value (Safety Population, N = 60) was 4 (7) number of patients (percent), the “Abdominal distension, Treatment-Related TEAEs, Grade 1” value (Safety Population, N = 60) was 4 (7) number of patients (percent) and the “Abdominal pain, TEAEs Due to Any Cause, Any grade” value (Safety Population, N = 60) was 3 (5) number of patients (percent). For the same compound, the “Abdominal pain, TEAEs Due to Any Cause, Grade 1” value (Safety Population, N = 60) was 1 (2) number of patients (percent), the “Abdominal pain, TEAEs Due to Any Cause, Grade 2” value (Safety Population, N = 60) was 2 (3) number of patients (percent) and the “Abdominal pain, Treatment-Related TEAEs, Any grade” value (Safety Population, N = 60) was 2 (3) number of patients (percent). The “Abdominal pain, Treatment-Related TEAEs, Grade 2” value (Safety Population, N = 60) was 2 (3) number of patients (percent), the “Abnormal dreams, TEAEs Due to Any Cause, Any grade” value (Safety Population, N = 60) was 1 (2) number of patients (percent) and the “Abnormal dreams, TEAEs Due to Any Cause, Grade 1” value (Safety Population, N = 60) was 1 (2) number of patients (percent). The “Abnormal dreams, Treatment-Related TEAEs, Any grade” value (Safety Population, N = 60) was 1 (2) number of patients (percent), the “Abnormal dreams, Treatment-Related TEAEs, Grade 1” value (Safety Population, N = 60) was 1 (2) number of patients (percent) and the “Akathisia, TEAEs Due to Any Cause, Any grade” value (Safety Population, N = 60) was 1 (2) number of patients (percent). The “Akathisia, TEAEs Due to Any Cause, Grade 1” value (Safety Population, N = 60) was 1 (2) number of patients (percent), the “Akathisia, Treatment-Related TEAEs, Any grade” value (Safety Population, N = 60) was 1 (2) number of patients (percent) and the “Akathisia, Treatment-Related TEAEs, Grade 1” value (Safety Population, N = 60) was 1 (2) number of patients (percent). For the same compound, the “Alopecia, TEAEs Due to Any Cause, Any grade” value (Safety Population, N = 60) was 2 (3) number of patients (percent), the “Alopecia, TEAEs Due to Any Cause, Grade 1” value (Safety Population, N = 60) was 2 (3) number of patients (percent) and the “Anemia, TEAEs Due to Any Cause, Any grade” value (Safety Population, N = 60) was 4 (7) number of patients (percent). The “Anemia, TEAEs Due to Any Cause, Grade 2” value (Safety Population, N = 60) was 2 (3) number of patients (percent), the “Anemia, TEAEs Due to Any Cause, Grade 3/4” value (Safety Population, N = 60) was 2 (3) number of patients (percent) and the “Any TEAE, TEAEs Due to Any Cause, Any grade” value (Safety Population, N = 60) was 48 (80) number of patients (percent). The “Any TEAE, TEAEs Due to Any Cause, Grade 1” value (Safety Population, N = 60) was 43 (72) number of patients (percent), the “Any TEAE, TEAEs Due to Any Cause, Grade 2” value (Safety Population, N = 60) was 30 (50) number of patients (percent) and the “Any TEAE, TEAEs Due to Any Cause, Grade 3/4” value (Safety Population, N = 60) was 8 (13)^† number of patients (percent). For the same compound, the “Any TEAE, Treatment-Related TEAEs, Any grade” value (Safety Population, N = 60) was 31 (52) number of patients (percent), the “Any TEAE, Treatment-Related TEAEs, Grade 1” value (Safety Population, N = 60) was 27 (45) number of patients (percent) and the “Any TEAE, Treatment-Related TEAEs, Grade 2” value (Safety Population, N = 60) was 15 (25) number of patients (percent). For the same compound, the “Arthralgia, TEAEs Due to Any Cause, Any grade” value (Safety Population, N = 60) was 5 (8) number of patients (percent), the “Arthralgia, TEAEs Due to Any Cause, Grade 1” value (Safety Population, N = 60) was 3 (5) number of patients (percent) and the “Arthralgia, TEAEs Due to Any Cause, Grade 2” value (Safety Population, N = 60) was 2 (3) number of patients (percent). The “Arthropod bite, TEAEs Due to Any Cause, Any grade” value (Safety Population, N = 60) was 3 (5) number of patients (percent), the “Arthropod bite, TEAEs Due to Any Cause, Grade 1” value (Safety Population, N = 60) was 3 (5) number of patients (percent) and the “Back pain, TEAEs Due to Any Cause, Any grade” value (Safety Population, N = 60) was 8 (13) number of patients (percent). For the same compound, the “Back pain, TEAEs Due to Any Cause, Grade 1” value (Safety Population, N = 60) was 7 (12) number of patients (percent).
